The source made the active and inactive calls. The rule behind the calls is not given here.
Columns and labels:
A-375 [1] = test: Antiproliferative activity against human A375 cells after 72 hrs by MTT assay; assay type: functional, cell-based; conditions: A-375, 72 h, read-out: IC50
M14 = test: Antiproliferative activity against human M14 cells after 72 hrs by MTT assay; assay type: functional, cell-based; conditions: M14, 72 h
WM164 = test: Antiproliferative activity against human WM164 cells after 72 hrs by MTT assay; assay type: functional, cell-based; conditions: WM164, 72 h
Tubulin (Bos taurus) = Tubulin (Bos taurus) (UniProt Q6B856+Q862L2+Q862F3); test: Inhibition of bovine brain tubulin polymerization at 10 uM measured at time interval of 1 mins for 20 mins by spectrophotometric analysis
Tubulin (Homo sapiens) [2] = target: T1, Tubulin (Homo sapiens) (UniProt P68371+Q9H4B7+P0DPH7+P68366+Q13509+Q71U36+P04350+Q3ZCM7+P07437+P68363+Q9BQE3+Q6PEY2+Q13885+Q9BVA1+Q9BUF5); test: Disruption of microtubule network in human WM164 cells assessed as microtubule fragmentation at 100 nM after 18 hrs by DAPI staining based fluorescence confocal microscopic method; assay type: cell-based
Tubulin (Homo sapiens) [3] = target: T1, Tubulin (Homo sapiens); test: Disruption of microtubule network in human WM164 cells assessed as microtubule disassembly at 100 nM after 18 hrs by DAPI staining based fluorescence confocal microscopic method; assay type: cell-based
A-375 [4] = test: Inhibition of anchorage-dependent colony formation in human A375 cells assessed as decrease in colony number at 5 nM after 12 days by crystal violet-staining based assay relative to control; assay type: functional; conditions: A-375, 288 h
A-375 [5] = test: Antimigratory activity in human A375 cells assessed as wound closure at 5 nM after 22 hrs by scratch migration assay (reference value: 60.7 +/- 3.5%); assay type: functional
A-375 [6] = test: Antimigratory activity in human A375 cells assessed as wound closure at 25 nM after 22 hrs by scratch migration assay (reference value: 60.7 +/- 3.5%); assay type: functional
RPMI-7951 = test: Antimigratory activity in human RPMI7951 cells assessed as wound closure at 25 nM after 18 hrs by scratch migration assay (reference value: 71.8 +/- 1.8%); assay type: functional
[7] = Half-life in CD-1 mouse liver microsomes in presence of NADPH regenerating system measured up to 4 hrs by UPLC-MS analysis; assay type: ADME, Microsome
[8] = Intrinsic clearance in CD-1 mouse liver microsomes in presence of NADPH regenerating system measured up to 4 hrs by UPLC-MS analysis; assay type: ADME, Microsome; conditions: read-out: CLH
[9] = Half-life in rat liver microsomes pre-incubated for 15 mins followed by addition of NADPH regenerating system by LC-MS analysis; assay type: ADME, Microsome
[10] = Intrinsic clearance in rat liver microsomes pre-incubated for 15 mins followed by addition of NADPH regenerating system by LC-MS analysis; assay type: ADME, Microsome; conditions: read-out: CLH
[11] = Half-life in human liver microsomes in presence of NADPH regenerating system; assay type: ADME, Microsome
[12] = Intrinsic clearance in human liver microsomes in presence of NADPH regenerating system; assay type: ADME, Microsome; conditions: read-out: CLH
[13] = Toxicity in ip dosed ICR mouse assessed as maximum tolerated dose; assay type: organism-based; conditions: in vivo
A-375 [14] = test: Antitumor activity against human A375 cells xenografted in nude mouse assessed as tumor growth inhibition at 15 mg/kg, ip administered once daily for 14 days and measured after 20 days by caliper method relative to control; assay type: functional; conditions: A-375, ip, read-out: TGI
A-375 [15] = test: Antitumor activity against human A375 cells xenografted in nude mouse assessed as tumor growth inhibition at 30 mg/kg, ip administered once daily for 14 days and measured after 20 days by caliper method relative to control; assay type: functional; conditions: A-375, ip, read-out: TGI
A-375 [16] = test: Antitumor activity against human A375 cells xenografted in nude mouse assessed as reduction in tumor weight at 15 mg/kg, ip administered once daily for 14 days relative to control; assay type: functional; set-up: scale not given: the % may be the effect or the level left
A-375 [17] = test: Antitumor activity against human A375 cells xenografted in nude mouse assessed as reduction in tumor weight at 30 mg/kg, ip administered once daily for 14 days relative to control; assay type: functional; set-up: scale not given: the % may be the effect or the level left
B16-F10 = test: Antimetastatic activity against mouse B16F10 cells xenografted in C57BL/6 mouse assessed as reduction in lung metastasis at 30 mg/kg, ip administered once daily for 2 weeks with 2 days rest after day 5 and measured after 15 days relative to control; assay type: functional; set-up: scale not given: the % may be the effect or the level left
[18] = Acute toxicity in nude mouse xenografted with human A375 cells assessed as injury to lung at 30 mg/kg, ip administered once daily for 14 days by hematoxylin and eosin staining-based assay; assay type: organism-based; conditions: in vivo, 336 h
[19] = Acute toxicity in nude mouse xenografted with human A375 cells assessed as injury to lung at 15 mg/kg, ip administered once daily for 14 days by hematoxylin and eosin staining-based assay; assay type: organism-based; conditions: in vivo, 336 h
[20] = Acute toxicity in nude mouse xenografted with human A375 cells assessed as injury to spleen at 15 mg/kg, ip administered once daily for 14 days by hematoxylin and eosin staining-based assay; assay type: organism-based; conditions: in vivo, 336 h
[21] = Acute toxicity in nude mouse xenografted with human A375 cells assessed as injury to liver at 15 mg/kg, ip administered once daily for 14 days by hematoxylin and eosin staining-based assay; assay type: organism-based; conditions: in vivo, 336 h
[22] = Acute toxicity in nude mouse xenografted with human A375 cells assessed as injury to kidney at 15 mg/kg, ip administered once daily for 14 days by hematoxylin and eosin staining-based assay; assay type: organism-based; conditions: in vivo, 336 h
[23] = Acute toxicity in nude mouse xenografted with human A375 cells assessed as injury to heart at 15 mg/kg, ip administered once daily for 14 days by hematoxylin and eosin staining-based assay; assay type: organism-based; conditions: in vivo, 336 h
[24] = Acute toxicity in nude mouse xenografted with human A375 cells assessed as injury to spleen at 30 mg/kg, ip administered once daily for 14 days by hematoxylin and eosin staining-based assay; assay type: organism-based; conditions: in vivo, 336 h
[25] = Acute toxicity in nude mouse xenografted with human A375 cells assessed as injury to liver at 30 mg/kg, ip administered once daily for 14 days by hematoxylin and eosin staining-based assay; assay type: organism-based; conditions: in vivo, 336 h
[26] = Acute toxicity in nude mouse xenografted with human A375 cells assessed as injury to kidney at 30 mg/kg, ip administered once daily for 14 days by hematoxylin and eosin staining-based assay; assay type: organism-based; conditions: in vivo, 336 h
[27] = Acute toxicity in nude mouse xenografted with human A375 cells assessed as injury to heart at 30 mg/kg, ip administered once daily for 14 days by hematoxylin and eosin staining-based assay; assay type: organism-based; conditions: in vivo, 336 h
[28] = Acute toxicity in C57BL/6 mouse xenografted with mouse B16F10 cells assessed as injury to lung at 30 mg/kg, ip administered once daily for 2 weeks with 2 days rest after day 5 and measured after 15 days by hematoxylin and eosin staining-based assay; assay type: organism-based; conditions: in vivo, 360 h
[29] = Acute toxicity in C57BL/6 mouse xenografted with mouse B16F10 cells assessed as injury to spleen at 30 mg/kg, ip administered once daily for 2 weeks with 2 days rest after day 5 and measured after 15 days by hematoxylin and eosin staining-based assay; assay type: organism-based; conditions: in vivo, 360 h
[30] = Acute toxicity in C57BL/6 mouse xenografted with mouse B16F10 cells assessed as injury to liver at 30 mg/kg, ip administered once daily for 2 weeks with 2 days rest after day 5 and measured after 15 days by hematoxylin and eosin staining-based assay; assay type: organism-based; conditions: in vivo, 360 h
[31] = Acute toxicity in C57BL/6 mouse xenografted with mouse B16F10 cells assessed as injury to kidney at 30 mg/kg, ip administered once daily for 2 weeks with 2 days rest after day 5 and measured after 15 days by hematoxylin and eosin staining-based assay; assay type: organism-based; conditions: in vivo, 360 h
[32] = Acute toxicity in C57BL/6 mouse xenografted with mouse B16F10 cells assessed as injury to heart at 30 mg/kg, ip administered once daily for 2 weeks with 2 days rest after day 5 and measured after 15 days by hematoxylin and eosin staining-based assay; assay type: organism-based; conditions: in vivo, 360 h
[33] = target: Sodium-dependent noradrenaline transporter (Homo sapiens, UniProt P23975); test: Antagonist activity at human norepinephrine transporter at 1 uM; assay type: ADME
Sequence of Sodium-dependent noradrenaline transporter (P23975 whole entry): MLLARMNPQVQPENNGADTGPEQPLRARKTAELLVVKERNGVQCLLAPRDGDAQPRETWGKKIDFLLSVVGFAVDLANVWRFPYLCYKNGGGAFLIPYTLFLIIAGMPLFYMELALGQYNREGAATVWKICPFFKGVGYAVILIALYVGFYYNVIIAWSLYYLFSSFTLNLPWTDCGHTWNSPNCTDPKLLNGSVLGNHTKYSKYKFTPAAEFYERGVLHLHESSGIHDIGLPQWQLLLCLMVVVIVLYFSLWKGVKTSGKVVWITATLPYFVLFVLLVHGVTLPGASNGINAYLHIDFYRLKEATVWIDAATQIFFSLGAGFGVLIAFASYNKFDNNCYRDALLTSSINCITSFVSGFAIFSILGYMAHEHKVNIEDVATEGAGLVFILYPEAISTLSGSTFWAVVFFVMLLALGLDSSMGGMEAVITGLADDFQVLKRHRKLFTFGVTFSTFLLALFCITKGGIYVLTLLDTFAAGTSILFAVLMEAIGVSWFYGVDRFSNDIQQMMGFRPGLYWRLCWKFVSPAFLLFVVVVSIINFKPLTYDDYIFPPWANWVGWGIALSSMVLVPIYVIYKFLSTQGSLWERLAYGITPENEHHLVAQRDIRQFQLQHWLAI

[34] = target: 5-hydroxytryptamine receptor 2B (Homo sapiens, UniProt P41595); test: Antagonist activity at human HTR2B at 1 uM
Sequence of 5-hydroxytryptamine receptor 2B (P41595 whole entry): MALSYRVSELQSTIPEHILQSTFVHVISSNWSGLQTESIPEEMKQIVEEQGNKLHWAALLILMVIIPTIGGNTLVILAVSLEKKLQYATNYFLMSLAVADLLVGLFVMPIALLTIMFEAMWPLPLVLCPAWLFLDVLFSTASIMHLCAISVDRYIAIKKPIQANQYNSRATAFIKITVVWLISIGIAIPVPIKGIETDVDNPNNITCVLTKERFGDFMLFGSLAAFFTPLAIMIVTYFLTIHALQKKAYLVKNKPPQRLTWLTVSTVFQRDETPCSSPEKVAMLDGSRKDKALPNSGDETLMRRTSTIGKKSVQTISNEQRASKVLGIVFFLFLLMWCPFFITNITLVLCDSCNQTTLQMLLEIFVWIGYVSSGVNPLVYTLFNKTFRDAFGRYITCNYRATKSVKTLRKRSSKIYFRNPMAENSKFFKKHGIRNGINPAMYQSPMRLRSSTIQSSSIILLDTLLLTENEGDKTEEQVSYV

PC-3 = test: Antiproliferative activity against human PC3 cells; assay type: functional, cell-based
[35] = Antiproliferative activity against human PC3-TxR cells; assay type: functional, cell-based
[36] = Resistance index, ratio of IC50 for human PC3-TxR cells to IC50 for human PC3 cells; assay type: functional
DU-145 = test: Antiproliferative activity against human DU145 cells; assay type: functional, cell-based
[37] = Antiproliferative activity against human DU145-TxR cells; assay type: functional, cell-based
[38] = Resistance index, ratio of IC50 for human DU145-TxR cells to IC50 for human DU145 cells; assay type: functional
[39] = Antitumor activity against human PC3-TxR cells xenografted in nude mouse assessed as tumor growth inhibition at 30 mg/kg administered every other day for 3 weeks relative to control; assay type: functional; conditions: 504 h, read-out: TGI
[40] = Antitumor activity against human PC3-TxR cells xenografted in nude mouse assessed as reduction in tumor weight at 30 mg/kg administered every other day for 3 weeks relative to control; assay type: functional; set-up: scale not given: the % may be the effect or the level left
[41] = Toxicity in nude mouse xenografted with human PC-3/TxR cells assessed as effect on body weight at 30 mg/kg administered every other day for 3 weeks; conditions: in vivo, 504 h

## COc1cc(C(=O)c2c[nH]c(-c3cccc4[nH]ccc34)n2)cc(OC)c1OC
A-375 [1]
  IC50: 3.6 nM
M14
  IC50: 3.7 nM
WM164
  IC50: 1.6 nM
Tubulin (Bos taurus)
  inhibition: Active
Tubulin (Homo sapiens) [2]
  Activity: Active
Tubulin (Homo sapiens) [3]
  Activity: Active
A-375 [4]
  inhibition at 0.005 µM: 35.6%
A-375 [5]
  Activity: 38.5%
A-375 [6]
  Activity: 38.5%
RPMI-7951
  Activity: 35%
[7]
  half-life: 5.04 h
[8]
  CLint scaled: 11.3 mL/min/kg
[9]
  half-life: 5.26 h
[10]
  CLint scaled: 8.9 mL/min/kg
[11]
  half-life: 6.72 h
[12]
  CLint scaled: 3.1 mL/min/kg
[13]
  MTD: ≤ 65 mg/kg
A-375 [14]
  inhibition in vivo at 15 mg/kg: 82.3%
A-375 [15]
  inhibition in vivo at 30 mg/kg: 90.6%
A-375 [16]
  Activity: 67.3%
A-375 [17]
  Activity: 70.1%
B16-F10
  Activity: 80.9%
[18]
  Activity: Non-Toxic
[19]
  Activity: Non-Toxic
[20]
  Activity: Non-Toxic
[21]
  Activity: Non-Toxic
[22]
  Activity: Non-Toxic
[23]
  Activity: Non-Toxic
[24]
  Activity: Non-Toxic
[25]
  Activity: Non-Toxic
[26]
  Activity: Non-Toxic
[27]
  Activity: Non-Toxic
[28]
  Activity: Non-Toxic
[29]
  Activity: Non-Toxic
[30]
  Activity: Non-Toxic
[31]
  Activity: Non-Toxic
[32]
  Activity: Non-Toxic
[33]
  Activity: Active
[34]
  Activity: Active
PC-3
  IC50: 89.9 nM
[35]
  IC50: 66.9 nM
[36]
  Ratio IC50: 0.7
DU-145
  IC50: 169 nM
[37]
  IC50: 379 nM
[38]
  Ratio IC50: 2.2
[39]
  inhibition in vivo at 30 mg/kg: 83.8%
[40]
  Activity: 62.8%
[41]
  Activity: Non-Toxic

— ChEMBL document CHEMBL4364286, “Structure-Guided Design, Synthesis, and Biological Evaluation of (2-(1H-Indol-3-yl)-1H-imidazol-4-yl)(3,4,5-trimethoxyphenyl) Methanone (ABI-231) Analogues Targeting the Colchicine Binding Site in Tubulin” (J Med Chem, 2019)
